US20150344457A1, “METHODS OF INHIBITING PRMT5” (EPIZYME, INC., priority 2012, published 2015)
Where two headings read alike, the source gives them in different places.

Legend:
PRMT5/MEP50 = target: T1, PRMT5/MEP50 (Homo sapiens, UniProt O14744); assay: PRMT5 Biochemical Assay (PRMT5/MEP50 enzyme assay on peptide substrate, 3H-SAM Flashplate); conditions: read-out: Biochemical IC50
T1 construct: Expressed full-length human Flag-PRMT5/6His-MeP50 protein complex was purified; made in house; host or cells: Spodoptera frugiperda (SF9) insect cells, baculovirus (pDEST8)

Z-138 cells [1] = assay: Z-138 Proliferation Assay (Cell Titer Glo, 5 days); assay type: cell-based; conditions: Homo sapiens
Text: Z-138 Proliferation Assay
Z-138 suspension cells were purchased from ATCC (American Type Culture Collection, Manassas, Va.). RPMI/Glutamax medium, penicillin-streptomycin, heat inactivated fetal bovine serum were purchased from Life Technologies, Grand Island, N.Y., USA. V-bottom polypropylene 384-well plates were purchased from Greiner Bio-One, Monroe, N.C., USA. Cell culture 384-well white opaque plates were purchased from Perkin Elmer, Waltham, Mass., USA. Cell-Titer Gb® was purchased from Promega Corporation, Madison, Wis., USA. SpectraMax M5 plate reader was purchased from Molecular Devices LLC, Sunnyvale, Calif., USA.
Z-138 suspension cells were maintained in growth medium (RPMI 1640 supplemented with 10% v/v heat inactivated fetal bovine serum and cultured at 37° C. under 5% CO2. Under assay conditions, cells were incubated in assay medium (RPMI 1640 supplemented with 10% v/v heat inactivated fetal bovine serum and 100 units/mL penicillin-streptomycin) at 37° C. under 5% CO2.
For the assessment of the effect of compounds on the proliferation of the Z-138 cell line, exponentially growing cells were plated in 384-well white opaque plates at a density of 10,000 cells/ml in a final volume of 50 μl of assay medium. A compound source plate was prepared by performing triplicate nine-point 3-fold serial dilutions in DMSO, beginning at 10 mM (final top concentration of compound in the assay was 20 μM and the DMSO was 0.2%). A 100 nL aliquot from the compound stock plate was added to its respective well in the cell plate. […] After addition of compounds, assay plates were incubated for 5 days at 37° C., 5% CO2, relative humidity >90%.
Cell viability was measured by quantitation of ATP present in the cell cultures, adding 35 μl of Cell Titer Glo® reagent to the cell plates. Luminescence was read in the SpectraMax M5 microplate reader. The concentration of compound inhibiting cell viability by 50% was determined using a 4-parametric fit of the normalized dose response curves.

Z-138 cells [2] = assay: Z-138 Methylation Assay (In Cell Western for symmetric di-methyl arginine and DNA content); assay type: cell-based; conditions: Homo sapiens
Text: Z-138 suspension cells were purchased from ATCC (American Type Culture Collection, Manassas, Va.). RPMI/Glutamax medium, penicillin-streptomycin, heat inactivated fetal bovine serum, and D-PBS were purchased from Life Technologies, Grand Island, N.Y., USA. Odyssey blocking buffer, 800CW goat anti-rabbit IgG (H+L) antibody, and Licor Odyssey infrared scanner were purchased from Licor Biosciences, Lincoln, Nebr., USA. Symmetric di-methyl arginine antibody was purchased from EMD Millipore, Billerica, Mass., USA. 16% Paraformaldehyde was purchased from Electron Microscopy Sciences, Hatfield, Pa., USA.
Z-138 suspension cells were maintained in growth medium (RPMI 1640 supplemented with 10% v/v heat inactivated fetal bovine serum and 100 units/mL penicillin-streptomycin) and cultured at 37° C. under 5% CO2.
Cell Treatment, in Cell Western (ICW) for Detection of Symmetric Di-Methyl Arginine and DNA Content.
Z-138 cells were seeded in assay medium at a concentration of 50,000 cells per mL to a 384-well cell culture plate with 50 μL per well. Compound (100 nL) from 384 well source plates was added directly to 384 well cell plate. Plates were incubated at 37° C., 5% CO2 for 96 hours. After four days of incubation, 40 μL of cells from incubated plates were added to poly-D-lysine coated 384 well culture plates (BD Biosciences 356697). Plates were incubated at room temperature for 30 minutes then incubated at 37° C., 5% CO2 for 5 hours. After the incubation, 40 μL per well of 8% paraformaldehyde in PBS (16% paraformaldahyde was diluted to 8% in PBS) was added to each plate and incubated for 30 minutes. Plates were transferred to a Biotek 405 plate washer and washed 5 times with 100 μL per well of wash buffer (1×PBS with 0.1% Triton X-100 (v/v)). Next 30 μL per well of Odyssey blocking buffer were added to each plate and incubated 1 hour at room temperature. Blocking buffer was removed and 20 μL per well of primary antibody was added (symmetric di-methyl arginine diluted 1:100 in Odyssey buffer with 0.1% Tween 20 (v/v)) and plates were incubated overnight (16 hours) at 4° C. Plates were washed 5 times with 100 μL per well of wash buffer. Next 20 μL per well of secondary antibody was added (1:200 800CW goat anti-rabbit IgG (H+L) antibody, 1:1000 DRAQS (Biostatus limited) in Odyssey buffer with 0.1% Tween 20 (v/v)) and incubated for 1 hour at room temperature. The plates were washed 5 times with 100 μL per well wash buffer then 1 time with 100 μL per well of water. Plates were allowed to dry at room temperature then imaged on the Licor Odyssey machine which measures integrated intensity at 700 nm and 800 nm wavelengths. Both 700 and 800 channels were scanned.
First, the ratio for each well was determined by:
Each plate included fourteen control wells of DMSO only treatment (minimum inhibition) as well as fourteen control wells for maximum inhibition treated with 3 μM of a reference compound (Background wells). The average of the ratio values for each control type was calculated and used to determine the percent inhibition for each test well in the plate. Reference compound was serially diluted three-fold in DMSO for a total of nine test concentrations, beginning at 3 μM. Percent inhibition was determined and IC50 curves were generated using triplicate wells per concentration of compound.

[3] = Table A-2, PRMT5/MEP50 4 nM, 3H-SAM 75 nM, peptide 40 nM
[4] = Table A-2, 96 hours, symmetric di-methyl arginine, read-out: ICW EC50

T1 sequence (O14744 with tags, fused parts or gaps): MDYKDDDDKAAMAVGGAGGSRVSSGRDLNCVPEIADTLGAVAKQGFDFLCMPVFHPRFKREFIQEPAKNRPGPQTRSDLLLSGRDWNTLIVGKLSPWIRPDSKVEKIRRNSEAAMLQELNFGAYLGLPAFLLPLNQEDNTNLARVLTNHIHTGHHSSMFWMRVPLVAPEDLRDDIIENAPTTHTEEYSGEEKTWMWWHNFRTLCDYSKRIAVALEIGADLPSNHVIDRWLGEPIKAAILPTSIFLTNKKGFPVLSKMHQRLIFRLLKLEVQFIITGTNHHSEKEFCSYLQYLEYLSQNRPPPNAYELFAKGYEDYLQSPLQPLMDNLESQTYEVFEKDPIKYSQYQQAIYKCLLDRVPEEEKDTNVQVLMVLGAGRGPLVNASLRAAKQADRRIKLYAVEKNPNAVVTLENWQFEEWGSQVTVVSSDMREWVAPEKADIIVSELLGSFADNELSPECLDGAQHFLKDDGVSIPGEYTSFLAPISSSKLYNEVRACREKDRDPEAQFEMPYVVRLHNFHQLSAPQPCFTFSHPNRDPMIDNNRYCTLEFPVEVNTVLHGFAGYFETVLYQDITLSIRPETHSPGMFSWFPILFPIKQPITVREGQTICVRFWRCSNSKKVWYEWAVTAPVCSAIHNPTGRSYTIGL
T1 sequence (Q9BQA1 with tags, fused parts or gaps partner limits assumed): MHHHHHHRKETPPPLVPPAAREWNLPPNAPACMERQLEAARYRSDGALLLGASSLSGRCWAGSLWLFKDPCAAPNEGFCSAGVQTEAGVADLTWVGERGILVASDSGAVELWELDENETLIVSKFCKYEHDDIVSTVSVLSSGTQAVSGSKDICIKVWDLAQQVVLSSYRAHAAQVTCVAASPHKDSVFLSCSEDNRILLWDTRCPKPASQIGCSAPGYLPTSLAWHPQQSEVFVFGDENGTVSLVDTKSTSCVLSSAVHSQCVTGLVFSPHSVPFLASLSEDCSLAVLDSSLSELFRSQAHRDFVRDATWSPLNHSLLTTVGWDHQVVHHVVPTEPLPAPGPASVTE

Structure (SMILES) | IC50 (PRMT5/MEP50; Table D-2) | EC50 (Z-138 cells [2]; [4]) | EC50 (Z-138 cells [1]; Table D-2) | further results
Cc1cn(C)c2cccc(OCC(=O)NCC(O)CN3CCc4ccccc4C3)c12 (stereo not shown) [Compound A146] | – | 0.101 to 1 µM | – | IC50 (PRMT5/MEP50; [3]): < 0.1 µM
Cn1cnc2ccc(NCC(=O)NCC(O)CN3CCc4ccccc4C3)cc21 (stereo not shown) [Compound A69] | – | 1 to 10 µM | – | IC50 (PRMT5/MEP50; [3]): 0.101 to 1 µM
Cn1cnc2ccc(OCC(=O)NCC(O)CN3CCc4ccccc4C3)cc21 (stereo not shown) [Compound A30] | – | 0.101 to 1 µM | – | EC50 (Z-138 cells [1]; 120 h, Table A-2, 5 days, top concentration 20 μM): 10 to 50 µM
O=C(COc1ccccc1)NCC(O)CN1CCc2ccccc2C1 (stereo not shown) [Compound A1] | – | 0.101 to 1 µM | – | IC50 (PRMT5/MEP50; [3]): 0.101 to 1 µM
O=C(COc1ccccc1N1CCOCC1)NC[C@@H](O)CN1CCc2ccccc2C1 [Compound A78] | – | 0.101 to 1 µM | – | IC50 (PRMT5/MEP50; [3]): 0.101 to 1 µM
Cn1nccc1-c1cccc(CC(=O)NCC(O)CN2CCc3ccccc3C2)c1 (stereo not shown) [Compound A54] | – | 0.101 to 1 µM | – | IC50 (PRMT5/MEP50; [3]): 0.101 to 1 µM
CN1CCN(c2ccccc2OCC(=O)NC[C@@H](O)CN2CCc3ccccc3C2)CC1 [Compound A85] | – | 1 to 10 µM | – | IC50 (PRMT5/MEP50; [3]): 1 to 10 µM

Continued, in another order:

IC50 (PRMT5/MEP50; Table D-2) | EC50 (Z-138 cells [2]; [4]) | Structure (SMILES) | EC50 (Z-138 cells [1]; Table D-2) | further results
1 to 10 µM | – | OC(COC1Cc2ccccc2C1)CN1CCc2ccccc2C1 (stereo not shown) [Compound D301] | > 40 µM | –
1 to 10 µM | – | OC(COC1CCCCCC1)CN1CCc2ccccc2C1 (stereo not shown) [Compound D309] | > 40 µM | –
1 to 10 µM | – | O=S1(=O)CCN(c2ccc(OCC(O)CN3CCc4ccccc4C3)cc2)CC1 (stereo not shown) [Compound D18] | > 20 µM | –
1 to 10 µM | – | OC(COCc1ccc(OCc2ccccc2)cc1)CN1CCc2ccccc2C1 (stereo not shown) [Compound D12] | > 20 µM | –
> 40 µM | – | OC(COC1CCNCC1)CN1CCc2ccccc2C1 (stereo not shown) [Compound D298] | > 40 µM | –
1 to 10 µM | – | OC(COc1ccc2c(c1)OCO2)CN1CCc2ccccc2C1 (stereo not shown) [Compound D285] | > 20 µM | –
> 40 µM | – | CN1CCC(OCC(O)CN2CCc3ccccc3C2)CC1 (stereo not shown) [Compound D293] | > 40 µM | –
1 to 10 µM | – | O=C(Nc1cccc(OCC(O)CN2CCc3ccccc3C2)c1)c1cccnn1 (stereo not shown) [Compound D164] | – | EC50 (Z-138 cells [2]; Table D-2, read-out: ICW EC50): 1 to 10 µM
1 to 10 µM | – | COc1cccc(COCC(O)CN2CCc3ccccc3C2)c1 (stereo not shown) [Compound D288] | > 40 µM | –
0.101 to 1 µM | – | OC(COc1cccc(CNC2CCCC2)c1)CN1CCc2ccccc2C1 (stereo not shown) [Compound D1] | 10 to 40 µM | –
0.101 to 1 µM | – | CCC1c2ccccc2CCN1CC(O)COc1cccc(-c2ccc3ncn(C)c3c2)c1 (stereo not shown) [Compound D179] | > 20 µM | –
0.101 to 1 µM | – | OC(COCC1COc2ccccc2O1)CN1CCc2ccccc2C1 (stereo not shown) [Compound D300] | > 40 µM | –
1 to 10 µM | – | OC(COCC1CCCCC1)CN1CCc2ccccc2C1 (stereo not shown) [Compound D294] | > 40 µM | –
1 to 10 µM | – | CN(Cc1ccc(OCC(O)CN2CCc3ccccc3C2)cc1)C1CCCC1 (stereo not shown) [Compound D24] | > 40 µM | –
0.101 to 1 µM | – | OC(COc1cccc(-c2ccccc2F)c1)CN1CCc2ccccc2C1 (stereo not shown) [Compound D154] | – | EC50 (Z-138 cells [2]; Table D-2, read-out: ICW EC50): 1 to 10 µM
> 40 µM | – | OC(COCC1CCCCO1)CN1CCc2ccccc2C1 (stereo not shown) [Compound D304] | > 40 µM | –
